Measured values reported in US12077503B2, “Substituted cyclic amides and their use as herbicides” (FMC CORPORATION, priority 2015, dated 2024).

Key:
Type in all cases: in vivo
[1] = tested on: giant foxtail (Setaria faberii); assay: Test A preemergence; conditions: Setaria faberi, pre-emergence, 240 h, read-out: Plant response rating, Foxtail, Giant
How it was run: (§1)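 Seeded soil received test chemicals as a preemergence directed spray, and seedlings at one to two leaves, 2–10 cm tall, received them postemergence, in a non-phytotoxic, surfactant-containing solvent mixture. Pots were held in a greenhouse for approximately 10 d, then rated for injury from 0, no effect, to 100, complete control.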

Kochia (Kochia scoparia) = assay: Test A preemergence; conditions: Bassia scoparia, pre-emergence, 240 h, read-out: Plant response rating, Kochia
How it was run: as §1

[2] = tested on: ragweed (common ragweed, Ambrosia elatior); assay: Test A preemergence; conditions: Ambrosia artemisiifolia, pre-emergence, 240 h, read-out: Plant response rating, Ragweed
How it was run: as §1

[3] = tested on: pigweed (Amaranthus retroflexus); assay: Test A preemergence; conditions: Amaranthus retroflexus, pre-emergence, 240 h, read-out: Plant response rating, Pigweed
[4] = tested on: barnyardgrass (Echinochloa crus-galli); assay: Test A preemergence; conditions: Echinochloa crus-galli, pre-emergence, 240 h, read-out: Plant response rating, Barnyardgrass
How it was run: as §1

[5] = tested on: ryegrass, Italian (Italian ryegrass, Lolium multiflorum); assay: Test A preemergence; conditions: Lolium multiflorum, pre-emergence, 240 h, read-out: Plant response rating, Ryegrass, Italian
How it was run: as §1

[6] = tested on: blackgrass (Alopecurus myosuroides); assay: Test A postemergence; conditions: Alopecurus myosuroides, post-emergence, 240 h, read-out: Plant response rating, Blackgrass
How it was run: as §1

[7] = tested on: giant foxtail (Setaria faberii); assay: Test A postemergence; conditions: Setaria faberi, post-emergence, 240 h, postemergence, 0 to 100 scale (0 no effect, 100 complete control), read-out: Plant response rating, Foxtail, Giant
How it was run: as §1

[8] = tested on: Galium (catchweed bedstraw, Galium aparine); assay: Test A postemergence; conditions: Galium, post-emergence, 240 h, postemergence, 0 to 100 scale (0 no effect, 100 complete control), read-out: Plant response rating, Galium
How it was run: as §1

corn (Zea mays) = assay: Test A postemergence; conditions: Zea mays, post-emergence, 240 h
How it was run: as §1

[9] = tested on: ragweed (common ragweed, Ambrosia elatior); assay: Test A postemergence; conditions: Ambrosia artemisiifolia, post-emergence, 240 h, postemergence, 0 to 100 scale (0 no effect, 100 complete control), read-out: Plant response rating, Ragweed
How it was run: as §1

[10] = tested on: wheat (Triticum aestivum); assay: Test A postemergence; conditions: Triticum aestivum, post-emergence, 240 h, postemergence, 0 to 100 scale (0 no effect, 100 complete control), read-out: Plant response rating, Wheat
How it was run: as §1

[11] = tested on: pigweed (Amaranthus retroflexus); assay: Test A postemergence; conditions: Amaranthus retroflexus, post-emergence, 240 h, postemergence, 0 to 100 scale (0 no effect, 100 complete control), read-out: Plant response rating, Pigweed
How it was run: as §1

[12] = tested on: barnyardgrass (Echinochloa crus-galli); assay: Test A postemergence; conditions: Echinochloa crus-galli, post-emergence, 240 h, read-out: Plant response rating, Barnyardgrass
How it was run: as §1

[13] = tested on: ryegrass, Italian (Italian ryegrass, Lolium multiflorum); assay: Test A postemergence; conditions: Lolium multiflorum, post-emergence, 240 h, postemergence, 0 to 100 scale (0 no effect, 100 complete control), read-out: Plant response rating, Ryegrass, Italian
How it was run: as §1

[14] = 125 g ai/ha, Preemergence, visual injury after approximately 10 d, 0 to 100 scale where 0 is no effect and 100 is complete control
[15] = 500 g ai/ha, preemergence, 0 to 100 scale, 0 = no effect, 100 = complete control
[16] = 125 g ai/ha, postemergence, visual rating after approx. 10 d, 0 to 100 scale (0 no effect, 100 complete control)
[17] = Postemergence, 500 g ai/ha, 0 to 100 scale where 0 is no effect and 100 is complete control
[18] = 125 g ai/ha, visual rating after approx. 10 d
[19] = 500 g ai/ha, visual injury, approx. 10 d

CN1C[C@H](c2ccc(F)c(F)c2)[C@@H](C(=O)Nc2cccc(F)c2F)C1=O [Compound 639, (3S,4S)—N-(2,3-difluorophenyl)-4-(3,4-difluorophenyl)-1-methyl-2-oxo-3-pyrrolidinecarboxamide]
pest or weed control at 125 g/ha [1, 14]: 90%
pest or weed control at 500 g/ha [1, 15]: 100%
pest or weed control at 125 g/ha (Kochia (Kochia scoparia); [14]): 70%
pest or weed control at 500 g/ha (Kochia (Kochia scoparia); [15]): 80%
pest or weed control at 125 g/ha [2, 14]: 50%
pest or weed control at 500 g/ha [2, 15]: 70%
pest or weed control at 125 g/ha [3, 14]: 50%
pest or weed control at 500 g/ha [3, 15]: 80%
pest or weed control at 125 g/ha [4, 14]: 90%
pest or weed control at 500 g/ha [4, 15]: 90%
pest or weed control at 125 g/ha [5, 14]: 60%
pest or weed control at 500 g/ha [5, 15]: 90%
pest or weed control at 125 g/ha [6, 16]: 60%
pest or weed control at 500 g/ha [6, 17]: 60%
pest or weed control at 125 g/ha [7, 18]: 90%
pest or weed control at 500 g/ha [7, 19]: 90%
pest or weed control at 125 g/ha [8, 18]: 40%
pest or weed control at 500 g/ha [8, 19]: 50%
Corn plant response rating (crop injury, 0 = no effect, 100 = complete kill) at 125 g/ha (corn (Zea mays); [16]): 40%
Corn plant response rating (crop injury, 0 = no effect, 100 = complete kill) at 500 g/ha (corn (Zea mays); [17]): 80%
pest or weed control at 125 g/ha [9, 18]: 0%
pest or weed control at 500 g/ha [9, 19]: 30%
plant injury at 125 g/ha [10, 18]: 60%
plant injury at 500 g/ha [10, 19]: 60%
pest or weed control at 125 g/ha [11, 18]: 20%
pest or weed control at 500 g/ha [11, 19]: 50%
pest or weed control at 125 g/ha [12, 16]: 90%
pest or weed control at 500 g/ha [12, 17]: 90%
pest or weed control at 125 g/ha [13, 18]: 30%
pest or weed control at 500 g/ha [13, 19]: 50%
